Experimental data as given in patent publication US12558369B2, “Compositions and methods of treating Fanconi Anemia” (Dana-Farber Cancer Institute, Inc., priority 2015, dated 2026).
Entries after “also recorded” stand apart in the source; their conditions may differ.

Experiments:
[1] = tested on: GM6914; test: MMC cell viability (CellTiterGlo) to identify IC90; type: cell-based, human; conditions: GM6914, MMC for 7 days
Procedure: FIG. 7. Identification of IC90 concentration of MMC on GM6914 and validation of genome wide RNAi screening for MMC resistance. • A) Identification of IC90 concentration of MMC on GM6914. Cells were treated with different doses of MMC for 7 days, and cell viability was measured using CellTiterGlo reagent. […] Cells were transduced with 6 pools of shRNA retrovirus libraries, and selected with puromycin for 48 h. Cells were then treated with MMC for 7 days, and resistant cells were harvested to re-assess their MMC sensitivity by treated with MMC for 3 days. Data shown represented cells transduced by pool #3, 5 and 6. • C) FANCA deficient fibroblast cells (GM6914) were evaluated for MMC sensitivity after shRNA mediated knockdown of SMAD3 and TP53. Survival was measured after 3 days exposure to indicated concentrations of MMC. […] Error bars represent s.e.m. • D) FANCD2 deficient fibroblast cells (PD20) were evaluated for MMC sensitivity after RNAi mediated knockdown of SMAD3 and TP53. Survival was measured after 3 days exposure to indicated concentrations of MMC. […]
(§1) For survival assays, cells were seeded at a density of 1×10^3 cells per well in 96-well plates. After 3-6 days of culture in indicated concentrations of MMC or post exposure of acetaldehyde, viability was assessed using CellTiterGlo reagent (Promega). […] Colonies were counted after crystal violet staining.

[2] = tested on: EUFA316 (FA-G fibroblasts); test: MMC sensitivity survival assay of FA cells with TGFβ pathway inhibitors; type: cell-based, human
Procedure: (§2) FIG. 1. TGFβ pathway disruption enhances FA cellular growth. • A) RIGER P value analysis to identify top candidate genes. • B) Clonogenic survival of GM6914 (FA-A fibroblasts) and FANCA-corrected GM6914 cells after shRNA mediated knockdown of SMAD3. Cells were treated with increasing doses of MMC and plated for 10-12 days. The average of two experiments is presented; error bars represent s.e.m.
(§3) For survival assays, cells were seeded at a density of 1×10^3 cells per well in 96-well plates. After 72 hours of culture in indicated concentrations of MMC or post exposure of acetaldehyde, viability was assessed using CellTiterGlo reagent (Promega). In order to assess clonogenicity, cells were seeded at a low density (500-1000 cells per well) in 6-well plates and allowed to form colonies. The cells were then fixed in methanol/20% acetic acid and stained with 1% crystal violet. Colony formation was assessed by solubilizing crystal violet stain with methanol and quantifying UV absorbance for each condition.
as §3, with “3-6 days” for “72 hours”, “Colonies were counted after” for “Colony formation was assessed by solubilizing”, “staining.” for “stain with methanol and quantifying UV absorbance for each condition.”

[3] = tested on: GM6914 cells (FA-A cells); test: Traffic light reporter (TLR) assay of HR and NHEJ; type: cell-based, human; conditions: GM6914, 10 μM SD208, 72 hrs
Text: FIG. 17. TGF-β pathway Inhibition Increases HR and Decreases NHEJ activities in FA Cells. • (A, B) TGF-β pathway inhibition affects the choice of HR versus NHEJ pathways in repairing individual DNA breakpoints in FA cells. GM6914 cells (FA-A cells) or FANCA corrected GM6914 cells with shControl or shSMAD3 were used to generate traffic light reporter system, and then were infected with GFP-donor template and I-SceI lentivirus to generate DNA breakpoints. Quantification analysis of HR and NHEJ repair events is shown. (B) The ratio of HR to NHEJ activity based on the data in (A). […] Quantification of HR and NHEJ repair events in GM6914 cells exposed to SD-208 for 72 hrs as detected by traffic light reporter assay described in (A). […] HR assay was measured in U2OS cells with DR-GFP reporter after transduction with lentivirus encoding indicated shRNAs. The representative of three independent experiments is presented. […] (F, G) TGF-β pathway inhibition promotes HR activity in FA cells. Representative images (F) and quantification (G) of RAD51 foci in MMC treated GM6914 (FA-A) cells or FANCA corrected GM6914 cells with shRNA-mediated knockdown of SMAD3. […] One hundred cells were scored for RAD51 foci. […]
the presence of 8 μg/mL polybrene. […] Genome engineering events were analyzed by flow cytometry at 72 hours after transduction. NHEJ is represented by mCherry fluorescence, and HR by GFP fluorescence.

[4] = tested on: EUFA316; test: Acetaldehyde sensitivity survival assay; type: cell-based, human; conditions: EUFA316 cells
Procedure: as §2, §3, §1

[5] = tested on: U2OS cells; test: Immunoblot of DNA-PK phosphorylation; type: cell-based, human
[6] = tested on: U2OS cells; test: NHEJ reporter assay; type: cell-based, human; conditions: template reporter assay
[7] = tested on: mouse fibroblast cells; test: Immunoblot of Smad2 phosphorylation; type: cell-based; conditions: immunoblot of lysates
[8] = tested on: Lin− cells from WT and Fancd2−/− mice; test: Bone marrow Lin− cell growth under TGF-β1; type: cell-based, mouse; conditions: TGF-β1 1 ng/mL; Ab 10 μg/mL or SD208 10 μM; 5 days
Procedure: (§4) (A) Expression of phospho-Smad2/3 proteins in HSPCs from WT and Fancd2−/− mice as detected by flow cytometric analysis. (B) Quantification of mean fluorescence intensity (MFI) of phospho-Smad2/3 staining by flow cytometric analysis shown in (A) in HSPCs from WT and Fancd2−/− mice. (C) Fancd2−/− HSPCs are more sensitive to TGF-β1 than WT HSPCs. Sorted Lin− cells from WT or Fancd2−/− mice were exposed to TGF-β1. After 5 days in culture, LSK cells were analyzed by flow cytometry and quantified. Data are shown after normalizing to untreated WT group. […] Sorted Lin− cells from WT and Fancd2−/− mice were exposed to TGF-β1 (1 ng/mL) with or without TGF-beta 1,2,3 Ab (10 μg/mL) or SD208 (10 μM), and viable cells were counted after 5 days in culture. Data shown are after normalizing to untreated WT group. Error bars represent mean±s.e.m. (F) Clonogenic assay of WT and Fancd2−/− HSPCs treated with TGF-β1, TGF-beta 1, 2, 3 Ab or SD208. […] Hematopoietic colonies were counted after 7-10 days in culture. […] (I) Representative FACS plots of LSK cells analyzed by flow cytometry for GFP expression after 5 days in vitro culture in stem cell culture medium. […] Luciferase activity was measured. (L) Binding of FANCD2 to SMAD1 promoter (region −2108 to −1950 bp) upon DNA damage as detected by ChIP assay using anti-FANCD2 antibody in corrected GM6914 (+FANCA) but not GM6914 (+Vector) fibroblast cells. […]

[9] = tested on: Fancd2−/− HSPCs; test: Clonogenic assay of HSPCs in methylcellulose; type: cell-based, mouse; conditions: TGF-β1 1 ng/mL, Ab 10 μg/mL or SD208 10 μM; colonies after 7-10 days
Procedure: as §4

SMILES	IC90 [1] [nM]	FA cells survival in the presence of MMC ([2]; FA cell lines with inhibitor)	cytotoxicity of corrected FA cells ([2]; corrected FA cells)	HR activity / HR events [3]	NHEJ events [3]	survival in the presence of acetaldehyde [4]	phosphorylation of DNA-PK [5]	NHEJ activity [6]	phosphorylation of Smad2 [7]	inhibitory effect of TGF-β1 on bone marrow Lin− cell growth [8]	clonogenic ability of Fancd2−/− HSPCs [9]
CO[C@@]12[C@H](COC(N)=O)C3=C(C(=O)C(C)=C(N)C3=O)N1C[C@@H]1N[C@@H]12 [MMC, mitomycin C]	19										
Fc1ccc(Cl)cc1-c1nc(Nc2ccncc2)c2nccnc2n1 [SD208]		improved FA cells survival in the presence of MMC	do not significantly alter cytotoxicity of corrected FA cells	increased HR activity; also recorded: increases HR events	decreases NHEJ events	significantly promoted survival	blocks phosphorylation of DNA-PK	decreased NHEJ	reduced phosphorylation of Smad2	rescues inhibitory effect of TGF-β1	markedly enhanced the clonogenic ability
